Patent US20070117814A1, “Fungicidal mixtures” (Basf Aktiengesellschaft, priority 2003, published 2007)

Tested on: Plasmopara viticola
Assay: activity against peronospora of grapevines caused by Plasmopara viticola (protective spray treatment of potted vines)
Assay type: in vivo, Plasmopara viticola on grapevines
Conditions: individual active compound, Abbot's formula, untreated control 92% infection
Procedure: The active compounds, separately or jointly, were prepared as a stock solution comprising 0.25% by weight of active compound in acetone or DMSO. 1% by weight of the emulsifier Uniperol® EL (wetting agent having emulsifying and dispersant action based on ethoxylated alkylphenols) was added to this solution, and the mixture was diluted with water to the desired concentration.
Use example—activity against peronospora of gravevines caused by Plasmopara viticola
Leaves of potted vines were sprayed to runoff point with an aqueous suspension having the concentration of active compound stated below. The next day, the undersides of the leaves were inoculated with an aqueous sproangal suspension of Plasmopara viticola. The grapevines were then initially placed in a water-vapor-saturated chamber at 24° C. for 48 hours and then in a greenhouse at 20-30° C. for 5 days. After this period of time, the plants were again placed in a humid chamber for 16 hours to promote sporangiophore eruption. The extent of the development of the disease on the undersides of the leaves was then determined visually.
The visually determined percentages of infected leaf areas were converted into efficacies in % of the untreated control:
The efficacy (E) is calculated as follows using Abbot's formula: E=(1−α/β)·100 • α corresponds to the fungicidal infection of the treated plants in % and • β corresponds to the fungicidal infection of the untreated (control) plants in %
An efficacy of 0 means that the infection level of the treated plants corresponds to that of the untreated control plants; an efficacy of 100 means that the treated plants were not infected.
The expected efficacies of mixtures of active compounds were determined using Colby's formula (Colby, S. R. “Calculating synergistic and antagonistic responses of herbicide combinations”, Weeds, 15, 20-22, 1967) and compared with the observed efficacies.
Colby's formula: E=x+y−x·y/100 • E expected efficacy, expressed in % of the untreated control, when using the mixture of the active compounds A and B at the concentrations a and b • x efficacy, expressed in % of the untreated control, when using the active compound A at the concentration a
y efficacy, expressed in % of the untreated control, when using the active compound B at the concentration b

Molecule: 2,6-dinitro-4-octylphenyl crotonate und 2,4-dinitro-6-octylphenyl crotonate [II]
- Efficacy in % of the untreated control (4 ppm in the spray liquor): 2%
- Efficacy in % of the untreated control (16 ppm in the spray liquor): 2%
- Efficacy in % of the untreated control (63 ppm in the spray liquor): 2%

Molecule: CC1CCN(c2c(-c3c(F)cc(F)cc3F)c(Cl)nc3ncnn23)CC1 [I, 5-chloro-7-(4-methylpiperidin-1-yl)-6-(2,4,6-trifluorophenyl)-[1,2,4]triazolo[1,5-a]pyrimidine]
- Efficacy in % of the untreated control (16 ppm in the spray liquor): 56%
